Source: patent US10455835B2, “Fungicidal compositions for controlling leaf spots in sugar beets” (Dow AgroSciences LLC, priority 2012, dated 2019)

Tested on: Cercospora beticola (CERCBE)
Assay: Activity vs. sugar beet leaf spot on inoculated sugar beet plants (disease severity)
Type: in vivo
Conditions: sugar beet 'HH88', factorial analysis across all rates and replicates
Method: Evaluation of Protectant Activity of Fungicide Mixtures vs. sugar beet leaf spot caused by Cercospora beticola (CERCBE). Sugar beet plants (variety ‘HH88’) were grown in soil-less Metro mix and trimmed regularly to maintain an uniform plant size prior to test. To prepare inoculum, dried diseased beet leaves were placed in a moist chamber overnight to promote sporulation. Spores were rinsed off leaves with distilled water, filtered through cheesecloth to remove plant debris, then adjusted to 4×10^4 spores/ml. Tween 20 was added at 3 drops per 100 ml. Sugar beet seedlings were inoculated 3 days prior to or 4 to 5 days after fungicide treatments. Inoculated plants were kept in a dew chamber at 22° C. for 48 hr then incubated in a greenhouse set at 24° C. under a clear plastic hood until disease symptoms were fully expressed. Disease severity was assessed on both treated and untreated plants.
The following fungicides were used for an efficacy example:
The efficacy of various formulations is shown in the table below wherein the values are percent disease severity. Results of the factorial analysis across all rates and replicates.

CC1COC(Cn2cncn2)(c2ccc(Oc3ccc(Cl)cc3)cc2Cl)O1 (centres unmarked) [difenconazole, 1H-1,2,4-Triazole, 1-((2-(2-chloro-4-(4-chlorophenoxy)phenyl)-4-methyl-1,3-dioxolan-2-yl)methyl)-]
percent disease severity (Ex. 1, 3DC (inoculated 3 days prior to fungicide treatment), untreated disease severity 23.0): 1.2 b percent | percent disease severity (Ex. 2, 5DP (inoculated 5 days after fungicide treatment), untreated disease severity 31.0): 2.2 b percent | percent disease severity (Ex. 3, 3DC (inoculated 3 days prior to fungicide treatment), untreated disease severity 48.0): 0.6 c percent | percent disease severity (Ex. 4, 4DP (inoculated 4 days after fungicide treatment), untreated disease severity 35.0): 2.5 b percent | percent disease severity (Ex. 5, 3DC (inoculated 3 days prior to fungicide treatment), untreated disease severity 26.0): 0.4 c percent
